Experimental data: patent EP4643860A1, “USE OF ECTOIN OR DERIVATIVE THEREOF IN PREVENTING AND/OR AMELIORATING CELL DAMAGE CAUSED BY IRRITANT, AND METHOD” (Bloomage Biotechnology Corporation Limited, priority 2022, dated 2024)

Assays:
[1] = Cell activity (MTT) after treatment with acetaldehyde alone; format: cell-based; settings: human, ca9-22 cells, 1 day, T/NT
Text: The absorbance of each well at 550nm was detected by a microplate reader. […] NT was taken as 100%, and the ratio of T/NT of the sample well was taken as the cell activity, the results of which are shown in Table 3. On the basis of meeting the requirements of significant difference, the greater the cell activity %, the better the effect of inhibiting cell damage caused by acetaldehyde. Table 3 Cell activity results

CA9-22 cells [2] = assay: Cell activity (MTT) of acetaldehyde-treated cells with ectoine; format: cell-based
Description: Experimental sample solution: ectoine powder and 17.7 M acetaldehyde were diluted with DMEM culture medium respectively, and then the two were mixed in different ratios to prepare experimental sample solutions with different final concentrations.
The absorbance of each well at 550nm was detected by a microplate reader. […] NT was taken as 100%, and the ratio of T/NT of the sample well was taken as the cell activity. The larger the cell activity %, the better the effect of inhibiting cell damage caused by acetaldehyde. Table 4 Cell activity results

in vitro = settings: human, ca9-22 cells, Cell activity
Description: (§1) Experimental sample solutions: ectoine powder was dissolved in DMEM culture medium to prepare experimental sample solutions with different final concentrations, and the concentrations were shown in Table 2.
(§2) Methods: CA9-22 cells purchased from ATCC were co-cultured with different experimental sample solutions for 1 day, then the experimental sample solution was removed and MTT was added. After 3 hours, the supernatant was carefully sucked out and dimethyl sulfoxide (DMSO) was added. The absorbance of each well at 550 nm was detected by a microplate reader. The untreated well was used as the control, the absorbance of the sample well was defined as T, and the absorbance of the untreated well was defined as NT. NT was taken as 100%, and the ratio of T/NT of the sample wells was taken as the cell activity. Table 2 Cell activity results

CA9-22 cells [3] = assay: in vitro
Description: as §1, §2

HGF-1 cells [4] = assay: ROS generation under CSE induction (DCFH-DA fluorescence); format: cell-based; settings: 24 h pre-incubation, 5% CSE 3 h, vs control group (FIG. 1)
Description: Ectoin (purchased from Bloomage Biotechnology) was weighed and dissolved in HGF-1 cell (gingival fibroblast) complete culture medium (containing 10% FBS, 1% penicillin-streptomycin), to prepare 100 µg/mL and 500 µg/mL ectoine solutions, respectively.
(§3) Preparation of Cigarette Smoke Extract (CSE): The gas collection bottle was sterilized and the HGF-1 cell culture medium was filled into the gas collection bottle. A certain brand of cigarette was fixed on the long tube end of the gas collection bottle, and the short tube end was connected to a vacuum pump. The vacuum pump was turned on and the cigarette was lighted, so that the cigarette smoke entered the culture medium from the long tube end. In this way, cigarette smoke extract was prepared.
Test method: Preparation of a DCFH-DA solution with a final concentration of 10 µM using phenol red-free culture medium.
HGF-1 cells were seeded into a 96-well plate at a density of 30,000 cells/well and cultured at 37°C under 5% CO2 for later use. After 24 hours for cell attachment, a blank group, a control group, and an experimental group containing 100µg/mL and […] ectoine, respectively, were set up, with 100µL/well. […] The fluorescence intensity was measured at an excitation wavelength of 485nm and an emission wavelength of 538nm. […]

CA9-22 cells [5] = assay: Inflammatory factor IL-6 induced by Pg.LPS (ELISA); format: cell-based; settings: vs Pg.LPS alone (FIG. 3)
Description: Experimental materials: Porphyromonas gingivalis lipopolysaccharide (Pg.LPS) (purchased from Sigma), ectoine (from Bloomage Biotechnology Corporation Limited), and DMEM culture medium.
Experimental sample solution: ectoine and Porphyromonas gingivalis lipopolysaccharide were diluted with DMEM culture medium to prepare an experimental sample solution containing a final concentration of 0.001 wt% ectoine + 1 µg/ml Pg.LPS.
CA9-22 cells were cultured in a 24-well plate. After complete attachment, the above experimental sample was added. After 24 hours, the cell culture supernatant was collected. The absorbance at […] and 570 nm was detected by enzyme-linked immunosorbent assay (ELISA), and the concentration of inflammatory factor IL-6 was calculated based on the absorbance.
(§4) According to the method in Example 2.1, an experimental sample solution containing a final concentration of 0.01wt% ectoine + 1µg/ml Pg.LPS was prepared, and the concentration of the inflammatory factor IL-6 was calculated. Other experimental processes not mentioned were the same as those in Example 2.1.
as §4, with “0.05wt% ectoine+1µg/ml” for “0.01wt% ectoine + 1µg/ml”
Statistical analysis: t-test statistical analysis was used to compare each group with group treated with Pg.LPS alone. * indicates p<0.05, which is considered to be of statistical difference. ** indicates p<0.01, which is considered to be of significant statistical difference, and *** indicates p<0.001, which is considered to be of extremely significant statistical difference.
Experimental materials: Porphyromonas gingivalis lipopolysaccharide (Pg.LPS) (purchased from Sigma), ACHA (from Bloomage Biotechnology Corporation Limited), and DMEM culture medium. […]

HGF-1 cells [6] = assay: TNF-α generation under CSE induction (ELISA); format: cell-based; settings: 24 h pre-incubation, 5% CSE 24 h, vs control group (FIG. 2)
Description: Ectoine (purchased from Bloomage Biotechnology) was weighed separately and dissolved in HGF-1 cell complete culture medium (containing 10% FBS, 1% penicillin-streptomycin), to prepare 100 µg/mL and 500 µg/mL ectoine solutions, respectively.
as §3
Test method: HGF-1 cells were seeded into a 96-well plate at a density of 30,000 cells/well and cultured at 37°C under 5% CO2 for later use. […] The secretion of TNF-α was detected using an ELISA detection kit. At the same time as the ELISA detection, cell lysate was added to the 96-well plate and centrifugation was performed, and the supernatant was taken for BCA protein quantification. After homogenization, the control group was used as a benchmark, and the relative content of TNF-α was expressed as a percentage. […]

Row | SMILES | viability at 24 h, 100 µM ([1]; Acetaldehyde 0.0001M) | viability at 24 h, 1000 µM ([1]; Acetaldehyde 0.001M) | viability at 24 h, 5000 µM ([1]; Acetaldehyde 0.005M) | viability at 24 h, 10000 µM ([1]; Acetaldehyde 0.01M) | viability at 24 h, 20000 µM ([1]; Acetaldehyde 0.02M) | viability at 20000 µM (CA9-22 cells [2]; Homo sapiens, Ca9-22, 24 h, read-out: Cell activity) | viability at 24 h (in vitro) | cytotoxicity (CA9-22 cells [3]) | ROS content after CSE oxidative irritation (HGF-1 cells [4]; 100µg/mL ectoine) | ROS content after CSE oxidative irritation (HGF-1 cells [4]; 200µg/mL ectoine) | concentration of IL-6 caused by Pg.LPS (CA9-22 cells [5]; 0.001wt% ectoine + 1 µg/ml Pg.LPS, 24 h (Example 2.1)) | concentration of IL-6 caused by Pg.LPS (CA9-22 cells [5]; 0.01wt% ectoine + 1µg/ml Pg.LPS, 24 h (Example 2.2)) | concentration of IL-6 caused by Pg.LPS (CA9-22 cells [5]; 0.05wt% ectoine + 1µg/ml Pg.LPS, 24 h (Example 2.3)) | TNF-α content after CSE irritation (HGF-1 cells [6]; 100µg/mL ectoine) | TNF-α content after CSE irritation (HGF-1 cells [6]; 500µg/mL ectoine) | cell activity of CA9-22 after the addition of ectoine (CA9-22 cells [2]; Acetaldehyde 0.02 M + ectoine 0.02-0.1 wt%, vs acetaldehyde-treated group)
1 | CC=O [Acetaldehyde, acetaldehyde] | 96% | 93% | 93% | 89% | 70% | 70% |  |  |  |  |  |  |  |  |  | 
2 | CC1=NC(C(=O)O)CCN1 (stereo not shown) [ectoine, 2-methyl-1,4,5,6-tetrahydropyrimidin-4-carboxylic acid] |  |  |  |  |  |  | 112% | no cytotoxicity | can inhibit the increase of ROS content | can inhibit the increase of ROS content | can significantly reduce the concentration of IL-6 | can significantly reduce the concentration of IL-6 | can significantly reduce the concentration of IL-6 | can inhibit the increase of TNF-α content | can inhibit the increase of TNF-α content | increased
